Results published in US11344709B2, “Fluid delivery apparatus having a controller assembly and method of use” (SORRENTO THERAPEUTICS, INC., priority 2016, dated 2022).
Where two headings read alike, the source gives them in different places.

How the values were obtained:
[1] = FIG. 49, cited from earlier work
[2] = Porcine Pharmacokinetic Study (FIG. 50): sumatriptan in blood serum after delivery from the fluid delivery apparatus; assay type: in vivo, Yorkshire pigs; details: 20 mg dose from the fluid delivery apparatus (microneedles), pig; actual profile FIG. 50 compared with nasal, oral and Zecuity (FIG. 49)
Method: In reference to FIG. 50, shown is the time versus concentration profile of sumatriptan as administered according to the methods and devices disclosed herein. An ideal profile (identified as “Target PK Profile”) is calculated based on the therapeutic efficiency of the medicament.
Thirty five 80 kg castrated or female Yorkshire pigs were placed under anesthesia and a catheter was inserted into the right or left jugular vein. After the catheter was placed, the pigs were kept under anesthesia and placed on their backs. The ventral region was shaved and covered with a depilatory cream (Nair Sensitive®) for 8 minutes. The cream was removed and the area washed with alcohol. The fluid delivery apparatus was placed against the skin with an adhesive and the microneedles (100 total) were inserted at a post traveling velocity of 6 m/s. A 20 mg dose of sumatriptan from the fluid deliver apparatus was delivered while the pig was under anesthesia. 3 mL blood samples were withdrawn at each time point and spun down to recover the blood serum.

[3] = nasal administration, compared with actual profile of the fluid delivery apparatus (FIG. 50)
[4] = subcutaneous administration, compared with the other routes of administration

AUC [2]: significantly improved | Css [2]: significantly improved | Tmax [2]: significantly improved
SMILES: CNS(=O)(=O)Cc1ccc2[nH]cc(CCN(C)C)c2c1.O=C(O)CCC(=O)O [sumatriptan, 1-[3-[2-(dimethylamino)ethyl]-1H-indol-5-yl]-N-methylmethanesulfonamide butanedioic acid]
AUC [1, 3]: significantly lower | Css [1, 3]: significantly lower | Tmax ([1]; oral administration, compared with actual profile of the fluid delivery apparatus (FIG. 50)): much slower | Css ([1]; subcutaneous administration): significantly lower as time progresses | Cmax [1, 4]: higher | Tmax [1, 4]: much faster
